Experiment in all cases: biochemical
Holding throughout (type): binding

Experiment [1] has as its target T1, panel of 442 kinases (Homo sapiens, UniProt Q9NRH2).
T1 construct: purchased Ambit Biosciences (scanMAXX KINOMEscan)
T1 sequence (Q9NRH2 1-765): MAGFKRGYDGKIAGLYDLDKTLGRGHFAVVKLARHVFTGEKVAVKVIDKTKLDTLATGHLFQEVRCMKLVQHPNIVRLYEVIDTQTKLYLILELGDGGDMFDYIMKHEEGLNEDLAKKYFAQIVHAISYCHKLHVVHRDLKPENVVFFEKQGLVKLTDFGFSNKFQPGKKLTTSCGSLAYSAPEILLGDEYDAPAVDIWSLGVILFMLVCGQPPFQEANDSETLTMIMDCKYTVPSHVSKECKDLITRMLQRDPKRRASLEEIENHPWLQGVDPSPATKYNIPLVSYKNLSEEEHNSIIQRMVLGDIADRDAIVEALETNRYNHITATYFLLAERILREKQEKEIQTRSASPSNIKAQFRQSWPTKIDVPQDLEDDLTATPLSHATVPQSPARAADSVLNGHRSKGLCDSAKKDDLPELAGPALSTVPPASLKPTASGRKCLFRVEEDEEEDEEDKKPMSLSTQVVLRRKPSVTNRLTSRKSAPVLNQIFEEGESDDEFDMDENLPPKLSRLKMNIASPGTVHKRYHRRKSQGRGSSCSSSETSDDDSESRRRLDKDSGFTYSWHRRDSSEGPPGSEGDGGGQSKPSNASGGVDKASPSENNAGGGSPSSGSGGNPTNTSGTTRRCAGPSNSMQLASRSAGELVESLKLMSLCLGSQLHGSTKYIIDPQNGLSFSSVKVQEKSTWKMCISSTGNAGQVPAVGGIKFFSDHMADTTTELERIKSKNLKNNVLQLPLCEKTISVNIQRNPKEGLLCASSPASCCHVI
Conditions: kinase SNRK; for remaining activity at 1 µM: read-out: SNRK (% of control at 1 µM).

Experiment [2] addresses T2, panel of 442 kinases (Homo sapiens, UniProt P42679).
T2 construct: purchased Ambit Biosciences (scanMAXX KINOMEscan)
T2 sequence (P42679 1-507): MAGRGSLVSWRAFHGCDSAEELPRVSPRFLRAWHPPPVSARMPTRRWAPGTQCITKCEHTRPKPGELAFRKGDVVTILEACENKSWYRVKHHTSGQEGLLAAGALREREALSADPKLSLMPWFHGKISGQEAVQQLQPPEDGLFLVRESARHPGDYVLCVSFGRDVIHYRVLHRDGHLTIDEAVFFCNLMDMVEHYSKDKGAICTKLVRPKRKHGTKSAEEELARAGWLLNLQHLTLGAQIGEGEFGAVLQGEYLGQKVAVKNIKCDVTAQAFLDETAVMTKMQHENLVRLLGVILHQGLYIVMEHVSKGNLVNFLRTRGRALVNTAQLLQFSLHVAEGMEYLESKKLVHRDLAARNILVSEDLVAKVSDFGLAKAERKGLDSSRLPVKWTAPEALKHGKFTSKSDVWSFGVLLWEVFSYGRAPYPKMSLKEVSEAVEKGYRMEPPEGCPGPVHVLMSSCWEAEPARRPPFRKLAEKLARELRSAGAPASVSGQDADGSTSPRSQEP
Conditions: CTK; for remaining activity at 1 µM: read-out: % of control at 1 µM.

In experiment [3] the target is T3, panel of 442 kinases (Homo sapiens, UniProt Q96Q40).
T3 construct: purchased Ambit Biosciences (scanMAXX KINOMEscan)
Conditions: kinase PFTAIRE2; for remaining activity at 1 µM: read-out: % of control at 1 µM.

In experiment [4] the target is T4, panel of 442 kinases (Homo sapiens, UniProt O94921).
T4 construct: purchased Ambit Biosciences (scanMAXX KINOMEscan)
Conditions: kinase PFTK1; for remaining activity at 1 µM: read-out: % of control at 1 µM.

Experiment [5] concerns the target T5, panel of 442 kinases (Homo sapiens, UniProt P51956).
T5 construct: purchased Ambit Biosciences (scanMAXX KINOMEscan)
T5 sequence (P51956 1-506): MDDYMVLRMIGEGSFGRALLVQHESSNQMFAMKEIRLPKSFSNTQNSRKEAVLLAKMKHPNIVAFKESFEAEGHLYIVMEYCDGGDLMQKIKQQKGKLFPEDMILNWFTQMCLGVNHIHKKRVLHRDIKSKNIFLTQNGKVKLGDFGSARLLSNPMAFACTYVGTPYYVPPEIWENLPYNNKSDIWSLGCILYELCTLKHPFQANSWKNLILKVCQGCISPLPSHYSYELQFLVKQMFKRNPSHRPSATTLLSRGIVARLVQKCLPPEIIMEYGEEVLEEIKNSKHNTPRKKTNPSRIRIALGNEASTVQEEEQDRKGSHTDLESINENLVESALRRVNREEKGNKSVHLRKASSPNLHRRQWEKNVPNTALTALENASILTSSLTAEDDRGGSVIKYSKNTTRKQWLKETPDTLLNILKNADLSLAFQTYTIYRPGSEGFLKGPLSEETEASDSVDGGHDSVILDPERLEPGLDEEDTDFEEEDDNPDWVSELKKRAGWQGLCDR
Conditions: kinase NEK3; for remaining activity at 1 µM: read-out: % of control at 1 µM.

Experiment [6] concerns the target T6, panel of 442 kinases (Homo sapiens, UniProt Q9UPZ9).
T6 construct: purchased Ambit Biosciences (scanMAXX KINOMEscan)
T6 sequence (Q9UPZ9 1-632): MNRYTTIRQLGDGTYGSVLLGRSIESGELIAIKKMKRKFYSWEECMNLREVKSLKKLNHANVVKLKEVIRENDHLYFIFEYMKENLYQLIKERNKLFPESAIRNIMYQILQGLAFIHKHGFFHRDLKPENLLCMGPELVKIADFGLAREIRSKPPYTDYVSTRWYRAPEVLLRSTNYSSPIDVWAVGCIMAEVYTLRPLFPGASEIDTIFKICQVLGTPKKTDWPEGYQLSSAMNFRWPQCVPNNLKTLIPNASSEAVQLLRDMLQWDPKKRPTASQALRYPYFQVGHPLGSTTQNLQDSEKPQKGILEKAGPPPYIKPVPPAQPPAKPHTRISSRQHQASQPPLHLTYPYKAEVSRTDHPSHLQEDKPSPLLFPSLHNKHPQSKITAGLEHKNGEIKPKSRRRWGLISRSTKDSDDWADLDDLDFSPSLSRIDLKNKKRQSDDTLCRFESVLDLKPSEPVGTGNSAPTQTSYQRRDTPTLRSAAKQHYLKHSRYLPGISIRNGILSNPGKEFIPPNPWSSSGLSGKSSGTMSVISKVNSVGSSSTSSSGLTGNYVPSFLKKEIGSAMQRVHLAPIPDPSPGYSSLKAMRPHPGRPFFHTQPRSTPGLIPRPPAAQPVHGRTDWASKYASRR
Conditions: kinase ICK; for remaining activity at 1 µM: read-out: % of control at 1 µM.

Experiment [7] addresses T7, panel of 442 kinases (Homo sapiens, UniProt Q9BWU1).
T7 construct: purchased Ambit Biosciences (scanMAXX KINOMEscan)
Conditions: CDK11; for remaining activity at 1 µM: read-out: % of control at 1 µM.

The mark [8] stands for this setting: 10 µM, read-out: % of control at 10 µM.

T3 sequence (Q96Q40 whole entry): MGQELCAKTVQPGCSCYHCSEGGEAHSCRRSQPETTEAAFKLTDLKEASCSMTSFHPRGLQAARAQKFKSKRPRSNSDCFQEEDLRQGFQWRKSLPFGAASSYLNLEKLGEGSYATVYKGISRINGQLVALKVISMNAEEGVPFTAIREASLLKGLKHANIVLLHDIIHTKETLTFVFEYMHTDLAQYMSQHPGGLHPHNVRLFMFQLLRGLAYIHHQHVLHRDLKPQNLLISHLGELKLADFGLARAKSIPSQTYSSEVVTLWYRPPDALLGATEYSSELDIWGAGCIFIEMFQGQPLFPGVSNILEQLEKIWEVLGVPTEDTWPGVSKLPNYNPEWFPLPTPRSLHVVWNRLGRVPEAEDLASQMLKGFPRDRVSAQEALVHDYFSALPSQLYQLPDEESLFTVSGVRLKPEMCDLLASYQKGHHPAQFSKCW
T7 sequence (Q9BWU1 whole entry): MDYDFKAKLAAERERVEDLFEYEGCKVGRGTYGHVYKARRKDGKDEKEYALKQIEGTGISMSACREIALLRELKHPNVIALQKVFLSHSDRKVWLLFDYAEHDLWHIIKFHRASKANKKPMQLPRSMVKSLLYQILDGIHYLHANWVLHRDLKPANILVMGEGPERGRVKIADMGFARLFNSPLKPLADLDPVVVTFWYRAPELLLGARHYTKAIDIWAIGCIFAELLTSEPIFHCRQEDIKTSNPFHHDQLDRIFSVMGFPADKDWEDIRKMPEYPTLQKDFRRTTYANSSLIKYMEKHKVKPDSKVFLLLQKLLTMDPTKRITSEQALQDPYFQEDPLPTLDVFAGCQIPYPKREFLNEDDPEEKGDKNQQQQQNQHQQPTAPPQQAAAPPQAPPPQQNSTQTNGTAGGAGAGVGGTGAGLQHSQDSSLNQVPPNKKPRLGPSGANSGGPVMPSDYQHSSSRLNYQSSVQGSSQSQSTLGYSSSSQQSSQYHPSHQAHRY
T4 sequence (O94921 whole entry): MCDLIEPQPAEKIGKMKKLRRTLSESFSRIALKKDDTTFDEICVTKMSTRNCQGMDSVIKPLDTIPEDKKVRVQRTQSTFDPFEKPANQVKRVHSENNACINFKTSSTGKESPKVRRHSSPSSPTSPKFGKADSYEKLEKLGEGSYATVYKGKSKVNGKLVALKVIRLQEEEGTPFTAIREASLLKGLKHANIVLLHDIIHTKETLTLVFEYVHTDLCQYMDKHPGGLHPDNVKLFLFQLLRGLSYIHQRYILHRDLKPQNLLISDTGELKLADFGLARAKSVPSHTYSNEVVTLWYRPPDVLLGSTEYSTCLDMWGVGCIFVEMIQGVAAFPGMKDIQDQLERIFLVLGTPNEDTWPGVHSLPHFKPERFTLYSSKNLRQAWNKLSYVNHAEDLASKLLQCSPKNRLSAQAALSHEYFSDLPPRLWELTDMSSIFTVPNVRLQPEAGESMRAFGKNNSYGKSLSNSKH

For `COc1ncc(-c2ccc3nccc(-c4ccnnc4)c3c2)cc1NS(=O)(=O)c1ccc(F)cc1F` [Omipalisib], the remaining activity at 1 µM on panel of 442 kinases [1] is 88%; on panel of 442 kinases [2] it was 100%; on panel of 442 kinases [3] it was 100%; at panel of 442 kinases [4] it was 97%; at panel of 442 kinases [5], 93%; at panel of 442 kinases [6] it was 87%. Moreover, the remaining activity at 1 µM on panel of 442 kinases [7] is 64%.
`Cn1c(=O)n(-c2ccc(C(C)(C)C#N)cc2)c2c3cc(-c4cnc5ccccc5c4)ccc3ncc21` [Dactolisib, 2-methyl-2-[4-(3-methyl-2-oxo-8-quinolin-3-yl-2,3-dihydroimidazo[4,5-c]quinolin-1-yl)-phenyl] propionitrile]: the remaining activity at 1 µM is 71% on panel of 442 kinases [1]; 92% at panel of 442 kinases [2]; 82% on panel of 442 kinases [3]; 98% on panel of 442 kinases [4]; 78% at panel of 442 kinases [5]; 68% on panel of 442 kinases [6]. Also, the remaining activity at 1 µM at panel of 442 kinases [7] was found to be 88%.
Consider `Nc1cc(C(F)(F)F)c(-c2cc(N3CCOCC3)nc(N3CCOCC3)n2)cn1` [Buparlisib], for which the remaining activity at 1 µM is 90% on panel of 442 kinases [1]; 100% on panel of 442 kinases [2]; 100% at panel of 442 kinases [3]; 100% at panel of 442 kinases [4]; 99% on panel of 442 kinases [5]; 92% at panel of 442 kinases [6]. Also, at panel of 442 kinases [7], the remaining activity at 1 µM turned out to be 100%. Besides, the remaining activity at 10 µM on panel of 442 kinases [1] (10 µM, read-out: SNRK (% of control at 10 µM)) was determined as 100%; on panel of 442 kinases [2] (setting [8]) it was 100%; at panel of 442 kinases [3] (setting [8]) it was 100%; at panel of 442 kinases [4] (setting [8]), 97%; at panel of 442 kinases [5] (setting [8]), 100%; at panel of 442 kinases [6] (setting [8]) it was 100%. The remaining activity at 10 µM on panel of 442 kinases [7] (setting [8]) stood at 98%.
Turning to `FC(F)c1nc2ccccc2n1-c1nc(N2CCOCC2)nc(N2CCOCC2)n1` [ZSTK474, 2-(difluoromethyl)-1-[4,6-di(4-morpholinyl)-1,3,5-triazin-2-yl]-1H-benzimidazole], the remaining activity at 1 µM at panel of 442 kinases [1] came to 100%; at panel of 442 kinases [2] it was 100%; on panel of 442 kinases [3], 83%; on panel of 442 kinases [4], 100%; at panel of 442 kinases [5] it was 73%; on panel of 442 kinases [6], 89%. Further, the remaining activity at 1 µM at panel of 442 kinases [7] worked out at 88%.

For the origin of these results see paper PMC5564600 (Oncotarget, 2017).
